The values below are quoted from earlier work in patent publication US10485783B1, “Methods and compositions for reducing or eliminating symptoms of withdrawal from drugs and alcohol” (Longevity Healthcare Center, priority 2018, dated 2019).

Data set [1] deals with GABAA and GABAB receptors. Particulars: synergistic with a GABAA receptor agonist, blocked by a GABAB receptor agonist.
Data set [2] has as its system rats self-administering morphine. To be noted: morphine 2 hours per day on 10 consecutive days, then ascorbic acid intraperitoneally.
The conditions of data set [3]: in vitro.

Regarding `CNC1(c2ccccc2Cl)CCCCC1=O` (stereo not shown) [Ketamine], in data set [1], the anti-depressive activity result is “anti-depressive activity”.

Take `O=C1O[C@H]([C@@H](O)CO)C(O)=C1O` [ascorbic acid]: the “level of morphine self-administration (number of lever pressings) and number and intensity of withdrawal symptoms” value in data set [2] is “decrease”. Moreover, in data set [1], the anti-depressive activity entry is reported as “anti-depressive activity”. Besides, the “concentration at which ascorbic acid generates free radicals (pro-oxidant)” value in data set [3] was 3 to 5 mM.
